Measured values published in US20230404996A1, “APPLICATION OF ISOQUINOLINE COMPOUND IN TUMOR TREATMENT” (NANJIANG SHIJIANG MEDICINE TECHNOLOGY CO., LTD, priority 2020, published 2023).
Where a name gives a salt, the structure may show the parent alone. Read-outs that look alike come from different tables or passages of the source.

Columns and labels:
NCI-H82 tumor = assay: Inhibitory effect on subcutaneous NCI-H82 tumor in nude mice; type: in vivo; conditions: nude mice inoculated with NCI-H82, intraperitoneally 10 mg/kg/day; FIG. 14
Excerpt: (§1) To verify whether the cells sensitive to isoquinoline compounds still maintained the sensitivity to isoquinoline compounds in vivo, inhibitory effect of berberine hydrochloride on tumor-bearing mice subcutaneously inoculated with sensitive cells (NCI-H82) was detected.
(§2) 5×10^6 of normal NCI-H82 cells, NCI-H82 cells with overexpression of NNMT protein and […] of DNMT1 (i.e. ov-NNMT/sh-DNMT1, the method for overexpressing NNMT protein and knocking down DNMT1 expression was shown in Example 13) were subcutaneously inoculated in nude mice to establish tumor-bearing mice. Each group of tumor-bearing mice was injected intraperitoneally with the berberine hydrochloride at a dose of 10 mg/kg/day, the change of tumor volume size over time was measured, and the tumors were removed and photographed in each group of mice at the end of the experiment to investigate the inhibitory effect of berberine hydrochloride on the tumor. The mice in control group was injected intraperitoneally with solvent vehicle in the same method, and the tumor volume was calculated as follows: tumor volume=½ length×width^2.

D341 Med = assay: Cell viability (CellTiter-Glo) IC50 on brain tumor cell lines; type: cell-based; conditions: 72 h, 3 days of culture, read-out: Inhibitory effect on brain tumor cell line (IC50)
Experimental: (§3) The inhibitory effect of isoquinoline compounds on various brain tumor cell lines was detected using cell activity detection reagents.
(§4) Cell viability was detected using the Promega CeliTiter-Glo kit, the kit reflected cell viability by directly measuring intracellular ATP content. In this experiment, the IC50 values of isoquinoline compounds on various brain tumor cell lines was determined.
(§5) Brain tumor cells were cultured in 10% FBS-containing medium (+p/s), and incubated for 3 h or the following day, the gradient diluted isoquinoline compound was added. After 3 days of culture, the relevant IC50 (50% inhibiting concentration) was measured. The name, source and culture conditions of each brain tumor cell line were as follows: • Cell line D341 Med (ATCC, No. HTB-187) was cultured in 20% fetal bovine serum-containing EMEM medium (+P/S). • Cell line Kelly (ECACC, No. 92110411) was cultured in RPMI1640 medium containing 10% fetal bovine serum and 2 mM glutamine; • Cell line NB-I (ATCC, No. HTB-131) was cultured in 10% fetal bovine serum-containing Leibovitz's L-15 medium (+P/S).

Kelly = assay: as above; type: cell-based; conditions: 72 h, 3 days of culture, read-out: Inhibitory effect on brain tumor cell line (IC50)
Experimental: as §3, §4, §5

NB-1 = assay: as above; type: cell-based; conditions: Homo sapiens, NB1, 72 h; NB-1, 3 days of culture; read-out: Inhibitory effect on brain tumor cell line (IC50)
Experimental: as §3, §4, §5

[1] = tested on: NCI-H82 cell with knockdown of DNMT1 expression (sh-DNMT1 #1, sh-DNMT1 #2); assay: Sensitivity of NCI-H82 cell after knockdown of DNMT1 expression (intracellular ATP detection); type: cell-based, human; conditions: DNMT1 expression knocked down (sh-DNMT1 #1 or #2), compared with Vector; FIG. 11
Excerpt: (§6) The NCI-H82 cell overexpressing NNMT protein was obtained by inserting the NNMT gene into NCI-1-182 cell using a viral vector. The expression of DNMT1 in NCI-H82 cells was knocked down using shRNA transfection. The changes in sensitivity of cell to isoquinoline compounds was investigated using intracellular ATP detection methods after overexpression of NNMT protein and/or knockdown of DNMT1 expression. The experiment result was shown in FIG. 11, wherein, “Vector” referred to NCI-1182 cell transfected with empty virus as control group.

SW48 = assay: Cell viability (CellTiter-Glo) IC50 on tumor cell lines; type: cell-based; conditions: Homo sapiens, 72 h; SW48, 3 days of culture; read-out: Inhibitory effect on cell line (IC50)
Experimental: (§7) The inhibitory effect of isoquinoline compounds on various tumor cell lines was detected using cell activity detection reagent.
(§8) Cell viability was detected using the Promega CellTiter-Glo kit, the kit reflected cell viability by directly measuring intracellular ATP content. In this experiment, the IC50 values of isoquinoline compounds on various tumor cell lines was determined.
(§9) Tumor cells were cultured in 10% FBS-containing medium (+p/s), and incubated for 3 h or the following day, then the gradient diluted isoquinoline compound was added. After 3 days of culture, the relevant IC50 (50% inhibiting concentration) was measured. The name, source and culture conditions of each tumor cell line were as follows: • Cell line NCI-H82 (ATCC, No. HTB-175) was cultured in 10% fetal bovine serum-containing RPMI1640 medium (+P/S). • Cell line G-401 (ATCC, No. CRL-1441) was cultured in 10% fetal bovine serum-containing McCoy's 5a medium (+P/S). • Cell line MDA-MB-453 (ATCC, No. HTB-131) was cultured in 10% fetal bovine serum-containing Leibovit's L-15 medium (+P/S). • Cell line SW48 (ATCC, No. CCL-231) was cultured in 10% fetal bovine serum-containing Leibovitz's L-15 medium (+P/S). • Cell line CFPAC-1 (ATCC, No. CRL-1918) was cultured in 10% fetal bovine serum-containing IMDM medium (+P/S). • Cell line 786-O (ATCC, No. CRL-1932) was cultured in 10% fetal bovine serum-containing RPMI1640 medium (+P/S). • Cell line GB-I (JCRB, No. IFO50489) was cultured in 10% fetal bovine serum-containing DMEM medium (+P/S). • Cell line SF126 (JCRB, No. IFO50286) was cultured in 10% fetal bovine serum-containing EMEM medium (+P/S).

G-401 = assay: as above; type: cell-based; conditions: Homo sapiens, 72 h; G-401, 3 days of culture; read-out: Inhibitory effect on cell line (IC50)
Experimental: as §7, §8, §9

SF-126 = assay: as above; type: cell-based; conditions: Homo sapiens, 72 h; SF-126, 3 days of culture; read-out: Inhibitory effect on cell line (IC50)
Experimental: as §7, §8, §9

GB-1 = assay: as above; type: cell-based; conditions: Homo sapiens, 72 h; GB-1, 3 days of culture; read-out: Inhibitory effect on cell line (IC50)
Experimental: as §7, §8, §9

MDA-MB-453 = assay: as above; type: cell-based; conditions: Homo sapiens, 72 h; MDA-MB-453, 3 days of culture; read-out: Inhibitory effect on cell line (IC50)
Experimental: as §7, §8, §9

786-O = assay: as above; type: cell-based; conditions: Homo sapiens, 786-0, 72 h, 3 days of culture, read-out: Inhibitory effect on cell line (IC50)
Experimental: as §7, §8, §9

CFPAC-1 = assay: as above; type: cell-based; conditions: Homo sapiens, 72 h; CFPAC-1, 3 days of culture; read-out: Inhibitory effect on cell line (IC50)
Experimental: as §7, §8, §9

[2] = tested on: NCI-H82 ov-NNMT/sh-DNMT1 tumor; assay: Inhibitory effect on subcutaneous NCI-H82 ov-NNMT/sh-DNMT1 tumor in nude mice; type: in vivo; conditions: nude mice inoculated with ov-NNMT/sh-DNMT1, intraperitoneally 10 mg/kg/day, compared with NCI-H82 tumor; FIG. 15
Excerpt: as §1, §2

NCI-H82 = assay: Cell viability (CellTiter-Glo) IC50 on tumor cell lines; type: cell-based, human; conditions: NCI-H82, 3 days of culture, read-out: Inhibitory effect on cell line (IC50)
Experimental: as §7, §8, §9

[3] = tested on: NCI-H82 cell ov-NNMT/sh-DNMT1 #1 and ov-NNMT/sh-DNMT1 #2; assay: Sensitivity of NCI-H82 cell after overexpression of NNMT and knockdown of DNMT1 (intracellular ATP detection); type: cell-based, human; conditions: NNMT overexpressed and DNMT1 knocked down simultaneously; FIG. 11
Excerpt: as §6

[4] = tested on: NCI-H82 cell overexpressing NNMT protein (ov-NNMT); assay: Sensitivity of NCI-H82 cell after overexpression of NNMT protein (intracellular ATP detection); type: cell-based, human; conditions: NNMT protein overexpressed alone (ov-NNMT), compared with Vector; FIG. 11
Excerpt: as §6

SMILES	Inhibitory effect on subcutaneous tumor (tumor volume) (NCI-H82 tumor)	IC50 (D341 Med) [nM]	IC50 (Kelly) [nM]	IC50 (NB-1) [nM]	Sensitivity of NCI-H82 cell to the compound [1]	IC50 (SW48) [nM]	IC50 (G-401) [nM]	IC50 (SF-126) [µM]	IC50 (GB-1) [µM]	IC50 (MDA-MB-453) [nM]	IC50 (786-O) [µM]	IC50 (CFPAC-1) [µM]	Inhibitory effect on subcutaneous tumor (tumor volume) [2]	IC50 (NCI-H82; Homo sapiens, 72 h) [nM]	Sensitivity of NCI-H82 tumor cells to the compound [3]	Sensitivity of NCI-H82 cell to the compound [4]	IC50 (NCI-H82) [nM]
COc1ccc2cc3[n+](cc2c1OC)CCc1cc2c(cc1-3)OCO2 [Berberine hydrochloride, reference compound]	significantly inhibit	4500	4100	1700	decreased	1260	1120	21.3	19.6	940	15.3	9.5	significantly weaker	510	decreased more significantly	decreased	
CCCOc1c(OC)ccc2cc3[n+](cc12)CCc1cc2c(cc1-3)OCO2 [Compound BBR-A1]		1000	1300	300		200	1000	7.5	9.1	800	16.3	8.3		400			
C=CCOc1c(OC)ccc2cc3[n+](cc12)CCc1cc2c(cc1-3)OCO2 [Compound BBR-A2]		1700	2100	600		3200	1600	22.6	11.2	1300	37.1	14.9		700			
COc1ccc2cc3[n+](cc2c1OCC(=O)OC(C)(C)C)CCc1cc2c(cc1-3)OCO2 [Compound BBR-A5]		1500	1800	300		1800	1100	15.5	9.2	700	18.5	17.7		500			
c1c2c(cc3c1OCO3)-c1cc3ccc4c(c3c[n+]1CC2)OCO4 [Coptisine hydrochloride]		2800	4400	2500		6000	3400	> 30	24.8	1600	> 30	22.1					1800
Cc1c2[n+](cc3cc4c(cc13)OCO4)CCc1cc3c(cc1-2)OCO3 [worenine]		4800	3900	2600		9600	2300	> 30	> 30	1300	> 30	> 30		4300			
